Measured values reported in patent US12503485B2, “Human aminosterol ENT-03 compounds, related compositions comprising the same, and methods of using the same” (Enterin, Inc., priority 2019, dated 2025).
Values joined by “and” are separate entries in the source; they are usually repeats but may differ in a detail not shown here. Equal entries are not always repeated. Where two headings read alike, the source gives them in different places.

Columns and labels:
PTPN7/LC-PTP = target: T1, PTPN7/LC-PTP (Homo sapiens, UniProt P35236); assay: Phosphatase assay PTPN7/LC-PTP; format: biochemical
T1 construct: purchased Recation Biology Inc

PTPN12/PTP-PEST = target: T2, PTPN12/PTP-PEST (Homo sapiens, UniProt Q05209); assay: Phosphatase assay PTPN12/PTP-PEST; format: biochemical
T2 construct: purchased Recation Biology Inc

PTPN11/SHP2 = PTPN11/SHP2 (Homo sapiens, UniProt Q06124); assay: Phosphatase assay PTPN11/SHP2; format: biochemical; conditions: Table 2C; read-out: Compound IC50 (M) PTPN11/SHP2
PTPN11/SHP2-FL = target: T3, PTPN11/SHP2-FL (Homo sapiens, UniProt Q06124); assay: Phosphatase assay PTPN11/SHP2-FL with activating peptide; format: biochemical
T3 construct: aa 2-597, isoform 1 (canonical)); StrepII-TEV (N); His-tag (C); purchased Recation Biology Inc; host or cells: E. coli

[1] = target: T4, PP2A Alpha/PP2R1A Complex (Homo sapiens, UniProt P67775); assay: Phosphatase assay PP2A Alpha/PP2R1A Complex; format: biochemical
T4 construct: purchased Recation Biology Inc

[2] = system: transcriptomes of the stomach, jejunum and ileum; format: in vivo, mice
Experimental: Young (20 week) and aged (80 week) C57bl/6 male mice were administered ENT-03 (40 mg/kg) or vehicle (water) by oral gavage daily for 2 weeks. Over this period of time clinical observations were unremarkable as were the gross and microscopic examinations of the GI tract. The transcriptomes of the stomach, jejunum and ileum were analyzed by RNAseq technology. Comparative analyses of the transcripts from untreated animals identified numerous transcripts that differed in abundance between the corresponding tissues from old and young individuals. […] Thus, within these three distinct regions of the mouse GI tract, ageing is associated with changes in the transcriptome.
Statistical analysis of RNA-sequencing data was performed using R programming language. Transcripts with less than one read count per million reads in all samples of each tissue were removed. The raw count data for the samples were then normalised using trimmed mean of M-values normalisation and transformed with voom (Law et al., 2014), resulting in log 2-transformed counts per million with associated precision weights. […] Statistical comparisons were performed using linear modelling, as implemented in the Bioconductor package limma (Ritchie et al., 2015). Significance values (p-values) were adjusted for multiple testing using Benjamini-Hochberg procedure (Benjamini et al., 1995). For each comparison (e.g. group A versus group B), a positive log 2-transformed fold change indicates up-regulation in group A relative to group B.
To investigate the overlap between contrasts, the number of overlapping differentially expressed genes (defined using adjusted p-value <0.05) between all pairwise combinations of the comparisons performed were counted. For each comparison, the Jaccard index, defined as the intersection over the union, measures the similarity between the two contrasts under consideration. The p-value was calculated using a hypergeometric test taking into account the universe size under the assumption that the contrasts and genes are independent.

[3] = Pharmacokinetic study, intravenous administration in male SD rats; format: in vivo; conditions: rat plasma, I.V. 5 mg/kg
Experimental: The objective of this example was to determine the pharmacokinetic profile of ENT-03 (Compound III) via intravenous and oral administration in male SD Rats.
Animal feeding control: Animals were food fasted overnight prior to dosing and fed 4 hours after administration having free access to water.
PK Sample Analyses: Concentrations of ENT-03 (Compound III) in the plasma and dose samples were analyzed using a LC-MS/MS method. WinNonlin (Phoenix™, version 6.1) or other similar software was used for pharmacokinetic calculations. The following pharmacokinetic parameters were calculated, whenever possible from the plasma concentration versus time data.
IV Bolus administration: T1/2, C0, AUClast, AUCinf, MRTinf, Cl, Vss, Number of Points for Regression.

PS19 mice = assay: Morris water maze, PS19 tauopathy mouse model; format: in vivo; conditions: 2.5 mg/kg i.p. once per week for 6 weeks, vs vehicle
Xenopus leavis tadpole = assay: In vivo activity on Xenopus tadpole in water; conditions: 10 μg/ml in 500 ml distilled water, about 1 hour
Experimental: To assess the activity of ENT-05 in vivo, the compound was added to 500 ml of distilled water to a concentration of 10 μg/ml. A Xenopus leavis tadpole, premetamorphic, was placed into the solution. […] A second animal was placed in 500 ml of water, containing 10 μg/ml ENT-05, but also 50 mM NaCl. In this case, the animal survived. The animal was then transferred to spring water without either salt or ENT-05 and remained active over the following days.

[4] = Body weight of mice after i.p. deuterated ENT-03; format: in vivo
Source text: The presence of the deuterium on the side chain likely slows the action of the 2-methylacyl-coenzyme A racemase on C-25, the subsequent action of the dehydrogenase that produces the 24,25-trans-unsaturated derivative by removing the deuterium atoms at C24 and C25, and the subsequent hydration and oxidation at the C24 bond catalyzed by the D-bifunctional protein. Instead, the metabolism of ENT-03D3 will begin with the oxidation at C24 by CYP46A1, yielding the following compound: […]

[5] = individual animals Rat 1-3, listed as ENT-03 (Compound III), 5 mg/kg

T4 sequence (P67775 whole entry): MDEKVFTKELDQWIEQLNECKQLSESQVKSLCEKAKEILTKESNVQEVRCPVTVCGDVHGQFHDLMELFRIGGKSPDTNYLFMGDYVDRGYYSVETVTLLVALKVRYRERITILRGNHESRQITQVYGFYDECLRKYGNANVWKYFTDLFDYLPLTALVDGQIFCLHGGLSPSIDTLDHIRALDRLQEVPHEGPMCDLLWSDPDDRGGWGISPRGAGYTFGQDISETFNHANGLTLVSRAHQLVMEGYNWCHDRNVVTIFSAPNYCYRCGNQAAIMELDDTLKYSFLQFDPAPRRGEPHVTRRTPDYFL
T4 sequence (P30153 whole entry partner): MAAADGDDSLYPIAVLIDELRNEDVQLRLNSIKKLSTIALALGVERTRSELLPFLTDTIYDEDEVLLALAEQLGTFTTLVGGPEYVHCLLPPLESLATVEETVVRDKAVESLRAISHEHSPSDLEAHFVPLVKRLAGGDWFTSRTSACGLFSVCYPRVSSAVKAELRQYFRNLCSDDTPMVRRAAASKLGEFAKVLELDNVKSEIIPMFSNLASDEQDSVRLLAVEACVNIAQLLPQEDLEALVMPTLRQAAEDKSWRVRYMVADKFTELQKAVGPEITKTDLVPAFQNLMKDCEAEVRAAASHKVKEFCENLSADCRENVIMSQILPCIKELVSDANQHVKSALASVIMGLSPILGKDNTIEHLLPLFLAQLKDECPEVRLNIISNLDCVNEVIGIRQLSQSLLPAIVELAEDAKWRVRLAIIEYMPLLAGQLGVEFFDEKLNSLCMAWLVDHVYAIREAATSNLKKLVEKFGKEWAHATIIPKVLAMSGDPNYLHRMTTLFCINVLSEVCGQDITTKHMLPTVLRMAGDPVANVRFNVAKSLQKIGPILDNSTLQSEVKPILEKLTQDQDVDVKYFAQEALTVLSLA
T2 sequence (Q05209 whole entry): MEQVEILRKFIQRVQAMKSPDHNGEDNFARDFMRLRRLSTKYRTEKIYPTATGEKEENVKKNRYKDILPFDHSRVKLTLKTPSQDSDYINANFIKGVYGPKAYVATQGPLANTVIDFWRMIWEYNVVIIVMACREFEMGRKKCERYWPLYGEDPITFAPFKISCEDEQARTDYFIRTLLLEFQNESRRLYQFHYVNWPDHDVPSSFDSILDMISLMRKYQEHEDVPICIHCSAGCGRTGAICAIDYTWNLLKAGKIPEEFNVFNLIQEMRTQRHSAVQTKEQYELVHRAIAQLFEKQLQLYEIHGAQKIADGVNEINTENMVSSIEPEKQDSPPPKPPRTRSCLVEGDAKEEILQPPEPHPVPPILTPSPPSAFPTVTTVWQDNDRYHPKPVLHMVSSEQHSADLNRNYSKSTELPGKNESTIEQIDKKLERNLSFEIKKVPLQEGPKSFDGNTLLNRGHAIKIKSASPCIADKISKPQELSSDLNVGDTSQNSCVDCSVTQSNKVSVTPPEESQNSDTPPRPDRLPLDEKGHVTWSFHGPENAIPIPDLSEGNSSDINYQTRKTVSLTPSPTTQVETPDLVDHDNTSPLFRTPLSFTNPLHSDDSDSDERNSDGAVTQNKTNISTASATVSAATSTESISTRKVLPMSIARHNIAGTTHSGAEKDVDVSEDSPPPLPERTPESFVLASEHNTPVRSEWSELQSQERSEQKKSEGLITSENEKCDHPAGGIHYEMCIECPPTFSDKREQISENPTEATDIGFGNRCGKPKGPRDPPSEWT
T1 sequence (P35236 whole entry): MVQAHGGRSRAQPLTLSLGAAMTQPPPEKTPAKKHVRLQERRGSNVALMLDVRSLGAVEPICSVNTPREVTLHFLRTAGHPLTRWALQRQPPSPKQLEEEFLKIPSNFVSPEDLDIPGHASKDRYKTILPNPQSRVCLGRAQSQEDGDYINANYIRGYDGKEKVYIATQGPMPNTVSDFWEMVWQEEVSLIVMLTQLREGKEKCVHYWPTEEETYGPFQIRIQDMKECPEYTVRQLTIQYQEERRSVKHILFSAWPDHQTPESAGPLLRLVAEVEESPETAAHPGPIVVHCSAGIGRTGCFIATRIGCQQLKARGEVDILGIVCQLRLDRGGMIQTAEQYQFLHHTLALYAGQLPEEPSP

CC(C)[C@@H](CC[C@@H](C)[C@H]1CC[C@H]2[C@@H]3[C@H](O)C[C@H]4C[C@@H](NCCCNCCCCNCCCN)CC[C@]4(C)[C@H]3CC[C@]12C)OS(=O)(=O)O (single isomer, unassigned) [ENT-02, trodusquemine]
activity on PTPN7/LC-PTP, in words (PTPN7/LC-PTP): target | activity on PTPN12/PTP-PEST, in words (PTPN12/PTP-PEST): target | IC50 (PTPN11/SHP2): 3.75e-07 M | activity against full length PTPN11/SHP2, in words (PTPN11/SHP2-FL): active

CC(CCCC(C)C1CCC2C3C(O)CC4CC(NCCCNCCCCNCCCN)CCC4(C)C3CCC12C)C(=O)O (single isomer, unassigned; ent-03) [ENT-03, 3-β-Spermino-7α-hydroxy-5α-cholestanoic acid]
activity at PP2A alpha, in words [1]: inactive | IC50 ([1]; Table 2B, read-out: Compound IC50 (M) PP2A Alpha/PP2R1A Complex): > 0.0001 M | number of differentially expressed genes ([2]; ileum, treated aged mice): 1162 genes | number of differentially expressed genes ([2]; ileum, treated young mice): 80 genes | genes changed significantly in response to exposure ([2]; jejunum and ileum, both young and aged mice): no more than 2 genes | number of differentially expressed genes ([2]; jejunum, treated aged mice): 382 genes | number of differentially expressed genes ([2]; jejunum, treated young mice): 42 genes | Ageing genes complemented by ENT-03 (30 most significant) Stomach ([2]; stomach, aged mice, gene named in value): shadow of prion protein | genes down-regulated in ageing overlapping with genes up-regulated by treatment ([2]; stomach, old mice, P<0.0001 hypergeometric test): 37 genes | number of differentially expressed genes ([2]; stomach, treated aged mice, 40 mg/kg oral daily 2 weeks, p(adj)<0.05): 63 genes | number of differentially expressed genes ([2]; stomach, treated young (20 week) mice, 40 mg/kg oral daily 2 weeks, p(adj)<0.05): 13 genes | ageing genes further down regulated in the ageing direction by treatment ([2]; stomach, young mice): 12 genes | clinical observations and gross and microscopic examinations of the GI tract ([2]; young and aged C57bl/6 male mice, 40 mg/kg oral gavage daily 2 weeks): unremarkable | AUClInf ([3]; Mean of 3 male SD rats): 986.457 µg·h/mL | AUClast ([3]; Mean of 3 male SD rats): 609.005 µg·h/mL | AUC—%Extrap—obs ([3]; Mean of 3 male SD rats): 38.2% | C0 ([3]; Mean of 3 male SD rats): 86.337 µg/mL | Cl_obs ([3]; Mean of 3 male SD rats): 5.1 mL/h/kg | MRTInf—obs ([3]; Mean of 3 male SD rats): 24.6 h | T1/2 ([3]; Mean of 3 male SD rats): 18.2 h | Vss—obs ([3]; Mean of 3 male SD rats): 0.125 L/kg | AUClInf [3, 5]: 922.477 µg·h/mL and 941.13 µg·h/mL and 1095.763 µg·h/mL | AUClast [3, 5]: 557.542 µg·h/mL and 608.321 µg·h/mL and 661.154 µg·h/mL | AUC—%Extrap—obs [3, 5]: 39.6% and 35.4% and 39.7% | C0 [3, 5]: 80.402 µg/mL and 102.409 µg/mL and 76.2 µg/mL | Cl_obs [3, 5]: 5.42 mL/h/kg and 5.31 mL/h/kg and 4.57 mL/h/kg | MRTInf—obs [3, 5]: 25.3 h and 22.9 h and 25.5 h | T1/2 [3, 5]: 18.6 h (2×) and 17.5 h | Vss—obs [3, 5]: 0.137 L/kg and 0.122 L/kg and 0.116 L/kg | learning during the training phase (PS19 mice): improved | memory on the probe day (PS19 mice): improved | effect on tadpole (Xenopus leavis tadpole): No similar effect | effect on body weight, in words [4]: loss of weight
